What was measured:
[1] = target: T1, Human δ-opioid (DOP) (Homo sapiens, UniProt P41143); assay: Radioligand binding, human δ-opioid (DOP) membranes, FlashPlate, [3H]-Bremazocine; conditions: compound at 10 μM; [3H]-Bremazocine
T1 construct: purchased Perkin Elmer Biosignal
How it was run: (§1)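 Cloned human receptor membranes were coated onto FlashPlate wells and incubated with radioligand and compound (added from a 0.5 mM DMSO daughter plate) for 1 hour at room temperature in the dark. Scintillation counting gave percent inhibition, with DMSO defining total and reference ligand defining non-specific binding.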

[2] = target: T2, Human κ-Opioid (KOP) (Homo sapiens, UniProt P41145); assay: Radioligand binding, human κ-opioid (KOP) membranes, filtration, [3H]-Diprenorphine; conditions: compound at 10 μM, [3H]-Diprenorphine
T2 construct: purchased Perkin Elmer Biosignal
T2 sequence (P41145 whole entry): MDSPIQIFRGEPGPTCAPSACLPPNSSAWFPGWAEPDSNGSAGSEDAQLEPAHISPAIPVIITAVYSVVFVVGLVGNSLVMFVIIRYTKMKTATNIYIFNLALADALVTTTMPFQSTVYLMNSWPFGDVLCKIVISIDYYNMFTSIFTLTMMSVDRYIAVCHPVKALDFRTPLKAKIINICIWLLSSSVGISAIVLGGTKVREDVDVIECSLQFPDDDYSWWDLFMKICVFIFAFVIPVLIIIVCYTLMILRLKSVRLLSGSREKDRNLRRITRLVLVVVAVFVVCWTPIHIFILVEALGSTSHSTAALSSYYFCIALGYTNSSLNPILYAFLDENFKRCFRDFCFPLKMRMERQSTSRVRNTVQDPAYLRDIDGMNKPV
How it was run: (§2)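 Percent inhibition of radioligand binding measured on recombinant human membranes: NK1 with [125I]-Substance P, KOP with [3H]-Diprenorphine. Incubation 1 h at room temperature, then harvest onto 0.3% PEI-soaked filters, cold Tris-HCl pH 7.4 washes and scintillation counting; non-specific binding from reference ligand wells.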

[3] = target: T3, Human Melanocortin (MC3) (Homo sapiens, UniProt P41968); assay: Radioligand binding, human melanocortin MC3 membranes, FlashPlate, [125I]-NDP-αMSH; conditions: compound at 10 μM; [125I]-NDP-αMSH
T3 construct: purchased Perkin Elmer Biosignal
T3 sequence (P41968 whole entry): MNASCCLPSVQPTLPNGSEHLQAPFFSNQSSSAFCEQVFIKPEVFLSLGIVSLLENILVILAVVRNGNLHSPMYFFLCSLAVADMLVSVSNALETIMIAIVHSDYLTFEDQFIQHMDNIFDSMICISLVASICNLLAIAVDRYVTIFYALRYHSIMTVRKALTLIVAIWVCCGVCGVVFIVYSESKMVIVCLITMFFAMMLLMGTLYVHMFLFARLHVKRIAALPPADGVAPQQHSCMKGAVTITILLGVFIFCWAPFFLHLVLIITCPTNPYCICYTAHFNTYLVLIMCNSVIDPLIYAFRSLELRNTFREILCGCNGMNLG
How it was run: as §1

[4] = target: T4, Human Melanocortin (MC4) (Homo sapiens, UniProt P32245); assay: Radioligand binding, human melanocortin MC4 membranes, FlashPlate, [125I]-NDP-αMSH; conditions: compound at 10 μM; [125I]-NDP-αMSH
T4 construct: purchased Perkin Elmer Biosignal
T4 sequence (P32245 whole entry): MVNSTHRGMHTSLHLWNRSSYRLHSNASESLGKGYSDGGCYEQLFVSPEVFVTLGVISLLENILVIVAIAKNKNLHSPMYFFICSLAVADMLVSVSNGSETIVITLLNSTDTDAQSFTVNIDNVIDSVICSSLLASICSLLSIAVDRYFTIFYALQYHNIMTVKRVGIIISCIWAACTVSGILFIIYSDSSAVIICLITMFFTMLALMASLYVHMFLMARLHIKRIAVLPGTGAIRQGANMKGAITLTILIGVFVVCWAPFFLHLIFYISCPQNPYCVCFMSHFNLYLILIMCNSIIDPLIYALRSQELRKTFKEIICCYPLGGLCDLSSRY
How it was run: as §1

[5] = target: T5, Human melanocortin (MC5) (Homo sapiens, UniProt P33032); assay: Radioligand binding, human melanocortin MC5 membranes, FlashPlate, [125I]-NDP-αMSH; conditions: compound at 10 μM; [125I]-NDP-αMSH
T5 construct: purchased Perkin Elmer Biosignal
T5 sequence (P33032 whole entry): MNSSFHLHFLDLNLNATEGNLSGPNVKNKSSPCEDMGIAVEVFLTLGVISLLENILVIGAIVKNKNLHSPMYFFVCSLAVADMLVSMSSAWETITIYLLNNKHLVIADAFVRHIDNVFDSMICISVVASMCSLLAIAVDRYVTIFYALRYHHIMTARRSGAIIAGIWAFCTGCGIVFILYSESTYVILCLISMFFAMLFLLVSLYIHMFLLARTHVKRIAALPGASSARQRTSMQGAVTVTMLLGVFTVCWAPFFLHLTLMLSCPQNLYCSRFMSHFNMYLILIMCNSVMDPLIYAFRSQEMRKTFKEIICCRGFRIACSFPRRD
How it was run: as §1

[6] = target: T6, Human melanin-concentrating hormone (MCH1) (Homo sapiens, UniProt Q99705); assay: Radioligand binding, human melanin-concentrating hormone MCH1 membranes, FlashPlate, [125I]-S36057; conditions: compound at 10 μM; [125I]-S36057
T6 construct: purchased Perkin Elmer Biosignal
T6 sequence (Q99705 whole entry): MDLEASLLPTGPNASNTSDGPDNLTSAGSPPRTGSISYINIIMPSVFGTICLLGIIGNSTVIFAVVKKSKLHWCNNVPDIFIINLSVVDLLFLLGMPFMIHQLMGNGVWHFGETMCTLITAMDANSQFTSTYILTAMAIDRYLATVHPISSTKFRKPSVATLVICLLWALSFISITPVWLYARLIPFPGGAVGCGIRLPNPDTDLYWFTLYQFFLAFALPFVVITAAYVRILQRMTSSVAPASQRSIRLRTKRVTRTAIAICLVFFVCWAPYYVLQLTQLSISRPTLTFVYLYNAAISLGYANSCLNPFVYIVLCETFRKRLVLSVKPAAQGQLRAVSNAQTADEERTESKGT
How it was run: as §1

[7] = target: T7, Human μ-opioid (MOP) (Homo sapiens, UniProt P35372); assay: Radioligand binding, human μ-opioid (MOP) membranes, FlashPlate, [3H]-Naloxone; conditions: compound at 10 μM; [3H]-Naloxone
T7 construct: purchased Perkin Elmer Biosignal
T7 sequence (P35372 whole entry): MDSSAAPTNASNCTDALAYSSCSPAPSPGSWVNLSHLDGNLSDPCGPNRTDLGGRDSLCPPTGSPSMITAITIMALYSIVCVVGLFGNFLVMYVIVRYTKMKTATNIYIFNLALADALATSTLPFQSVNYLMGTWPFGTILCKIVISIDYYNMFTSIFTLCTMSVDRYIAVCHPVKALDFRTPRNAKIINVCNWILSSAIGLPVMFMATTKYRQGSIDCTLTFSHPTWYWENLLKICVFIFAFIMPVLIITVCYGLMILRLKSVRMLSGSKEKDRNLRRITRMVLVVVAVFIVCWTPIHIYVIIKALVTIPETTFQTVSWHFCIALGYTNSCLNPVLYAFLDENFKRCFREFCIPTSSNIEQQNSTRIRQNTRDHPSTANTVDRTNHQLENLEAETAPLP
How it was run: as §1

[8] = target: T8, Human neurokinin (NK1) (Homo sapiens, UniProt P25103); assay: Radioligand binding, human neurokinin NK1 membranes, filtration, [125I]-Substance P; conditions: compound at 10 μM; [125I]-Substance P
T8 construct: purchased Perkin Elmer Biosignal
T8 sequence (P25103 whole entry): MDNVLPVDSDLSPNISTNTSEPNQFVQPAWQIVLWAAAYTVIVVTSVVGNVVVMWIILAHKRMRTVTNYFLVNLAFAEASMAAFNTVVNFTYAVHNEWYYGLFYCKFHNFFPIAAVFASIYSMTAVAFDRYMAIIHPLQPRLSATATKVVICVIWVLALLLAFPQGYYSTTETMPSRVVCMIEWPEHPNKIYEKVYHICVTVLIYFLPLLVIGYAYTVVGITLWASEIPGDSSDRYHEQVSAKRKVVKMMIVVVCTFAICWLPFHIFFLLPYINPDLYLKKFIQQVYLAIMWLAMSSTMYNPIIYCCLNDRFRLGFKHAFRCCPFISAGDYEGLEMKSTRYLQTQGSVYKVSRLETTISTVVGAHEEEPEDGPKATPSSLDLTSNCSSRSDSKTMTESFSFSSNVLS
How it was run: as §2

[9] = target: T9, Human neuropeptide Y (NPY-Y1) (Homo sapiens, UniProt P25929); assay: Radioligand binding, human neuropeptide Y NPY-Y1 membranes, FlashPlate, [125I]-PYY; conditions: compound at 10 μM; [125I]-PYY
T9 construct: purchased Perkin Elmer Biosignal
T9 sequence (P25929 1-384): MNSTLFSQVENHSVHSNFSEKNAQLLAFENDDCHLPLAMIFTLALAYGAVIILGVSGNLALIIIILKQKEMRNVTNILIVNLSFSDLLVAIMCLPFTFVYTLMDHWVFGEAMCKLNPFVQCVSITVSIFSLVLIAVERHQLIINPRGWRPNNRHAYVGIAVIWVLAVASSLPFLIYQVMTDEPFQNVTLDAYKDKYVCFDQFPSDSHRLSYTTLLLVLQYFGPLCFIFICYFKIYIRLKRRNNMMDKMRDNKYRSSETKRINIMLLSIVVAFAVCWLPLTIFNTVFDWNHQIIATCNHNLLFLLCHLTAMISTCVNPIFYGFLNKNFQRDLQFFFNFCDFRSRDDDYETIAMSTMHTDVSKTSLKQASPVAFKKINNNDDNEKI
How it was run: as §1

[10] = target: T10, Human opioid (ORL1) (Homo sapiens, UniProt P41146); assay: Radioligand binding, human opioid ORL1 membranes, FlashPlate, [125I]-Nociceptin; conditions: compound at 10 μM; [125I]-Nociceptin
T10 construct: purchased Perkin Elmer Biosignal
T10 sequence (P41146 whole entry): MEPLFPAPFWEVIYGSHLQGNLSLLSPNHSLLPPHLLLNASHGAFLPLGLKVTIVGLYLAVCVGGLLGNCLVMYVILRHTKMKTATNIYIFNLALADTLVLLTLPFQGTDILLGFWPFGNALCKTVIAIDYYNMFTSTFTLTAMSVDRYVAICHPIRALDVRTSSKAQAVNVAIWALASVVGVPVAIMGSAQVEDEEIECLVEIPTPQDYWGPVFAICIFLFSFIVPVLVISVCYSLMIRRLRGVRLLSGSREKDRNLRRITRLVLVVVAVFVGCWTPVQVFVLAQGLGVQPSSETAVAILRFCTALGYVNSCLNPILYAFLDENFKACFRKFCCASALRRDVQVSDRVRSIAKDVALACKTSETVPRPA
How it was run: as §1

[11] = target: T11, Mouse urotensin (mUR2) (Mus musculus, UniProt Q8VIH9); assay: Radioligand binding, mouse urotensin mUR2 membranes, FlashPlate, [125I]-Urotensin II; conditions: compound at 10 μM; [125I]-Urotensin II
T11 construct: purchased Perkin Elmer Biosignal
T11 sequence (Q8VIH9 1-385): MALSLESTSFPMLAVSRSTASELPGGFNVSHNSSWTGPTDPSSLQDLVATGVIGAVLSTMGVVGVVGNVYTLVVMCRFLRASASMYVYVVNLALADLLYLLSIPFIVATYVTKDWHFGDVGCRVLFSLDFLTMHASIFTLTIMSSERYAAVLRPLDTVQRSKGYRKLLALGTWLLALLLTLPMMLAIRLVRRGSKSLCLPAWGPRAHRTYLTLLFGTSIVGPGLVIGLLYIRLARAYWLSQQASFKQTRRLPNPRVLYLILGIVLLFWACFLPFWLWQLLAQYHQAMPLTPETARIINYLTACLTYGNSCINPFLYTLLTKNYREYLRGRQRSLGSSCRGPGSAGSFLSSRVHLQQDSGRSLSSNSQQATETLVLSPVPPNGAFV
How it was run: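 Cloned mouse urotensin (mUR2) receptor membranes from Perkin Elmer Biosignal were immobilized in FlashPlate microplates using a proprietary coating. Each well got 19.5 μl buffer, then 0.5 μl of DMSO, reference ligand, or compound. Adding 5 μl of [125I]-Urotensin II, diluted to 5× final concentration in binding buffer, started binding. Plates were sealed with TopSeal-A and incubated 1 hour at room temperature in the dark. Wells were counted for 30 seconds each on a TopCount after a 60-second delay, and percentage inhibition was calculated.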

T1 sequence (P41143 whole entry): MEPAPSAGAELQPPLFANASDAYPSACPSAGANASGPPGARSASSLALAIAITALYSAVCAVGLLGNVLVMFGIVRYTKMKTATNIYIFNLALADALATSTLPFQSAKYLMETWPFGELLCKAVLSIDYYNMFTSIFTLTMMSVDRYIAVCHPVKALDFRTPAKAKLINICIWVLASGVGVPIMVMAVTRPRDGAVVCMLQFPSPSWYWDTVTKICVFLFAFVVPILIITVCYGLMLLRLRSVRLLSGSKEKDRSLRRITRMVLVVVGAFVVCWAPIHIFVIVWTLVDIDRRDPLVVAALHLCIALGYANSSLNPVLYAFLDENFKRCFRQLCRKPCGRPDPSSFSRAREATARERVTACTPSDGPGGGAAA

| Structure (SMILES) | A1: inhibition of radioligand binding, human δ-opioid (DOP) [1] | A2: inhibition of radioligand binding, human κ-opioid (KOP) ([2]; 10 µM) | A3: inhibition of radioligand binding, human melanocortin (MC3) [3] | A4: inhibition of radioligand binding, human melanocortin (MC4) [4] | A5: inhibition of radioligand binding, human melanocortin (MC5) [5] | A6: inhibition of radioligand binding, human melanin-concentrating hormone (MCH1) [6] | A7: inhibition of radioligand binding, human μ-opioid (MOP) [7] | A8: inhibition of radioligand binding, human neurokinin (NK1) [8] | A9: inhibition of radioligand binding, human neuropeptide Y (NPY-Y1) [9] | A10: inhibition of radioligand binding, human opioid (ORL1) [10] | A11: inhibition of radioligand binding, mouse urotensin (mUR2) [11] | A2: inhibition of radioligand binding, human κ-opioid (KOP) [2] |
| --- | --- | --- | --- | --- | --- | --- | --- | --- | --- | --- | --- | --- |
| NCCC(=O)NC1C(OCc2ccc(Cl)cc2)OC(COCc2ccc(Cl)cc2)C(O)C1OCc1ccc2ccccc2c1 (single isomer, unassigned) [compound 482] | − (“−” indicates less than 50% inhibition at 10 μM) | − (“−” indicates less than 50% inhibition at 10 μM) | + (“+” indicates greater than 50% inhibition at 10 μM) | + (“+” indicates greater than 50% inhibition at 10 μM) | + (“+” indicates greater than 50% inhibition at 10 μM) | + (“+” indicates greater than 50% inhibition at 10 μM) | − (“−” indicates less than 50% inhibition at 10 μM) | + (“+” indicates greater than 50% inhibition at 10 μM) | − (“−” indicates less than 50% inhibition at 10 μM) | + (“+” indicates greater than 50% inhibition at 10 μM) | − (“−” indicates less than 50% inhibition at 10 μM) |  |
| NCCC(=O)NC1C(OCc2ccc(Cl)cc2)OC(COCc2ccc3ccccc3c2)C(O)C1OCc1ccccc1 (single isomer, unassigned) [compound 483] | − (“−” indicates less than 50% inhibition at 10 μM) |  | − (“−” indicates less than 50% inhibition at 10 μM) | − (“−” indicates less than 50% inhibition at 10 μM) | + (“+” indicates greater than 50% inhibition at 10 μM) | − (“−” indicates less than 50% inhibition at 10 μM) | − (“−” indicates less than 50% inhibition at 10 μM) | + (“+” indicates greater than 50% inhibition at 10 μM) | − (“−” indicates less than 50% inhibition at 10 μM) | − (“−” indicates less than 50% inhibition at 10 μM) | − (“−” indicates less than 50% inhibition at 10 μM) | − (“−” indicates less than 50% inhibition at 10 μM) |
| NCCC(=O)NC1C(OCc2ccc(Cl)cc2)OC(COCc2ccc3ccccc3c2)C(O)C1OCc1ccccc1 (single isomer, unassigned) [compound 484] | − (“−” indicates less than 50% inhibition at 10 μM) |  | − (“−” indicates less than 50% inhibition at 10 μM) | − (“−” indicates less than 50% inhibition at 10 μM) | + (“+” indicates greater than 50% inhibition at 10 μM) | − (“−” indicates less than 50% inhibition at 10 μM) | − (“−” indicates less than 50% inhibition at 10 μM) | + (“+” indicates greater than 50% inhibition at 10 μM) | − (“−” indicates less than 50% inhibition at 10 μM) | − (“−” indicates less than 50% inhibition at 10 μM) | − (“−” indicates less than 50% inhibition at 10 μM) | − (“−” indicates less than 50% inhibition at 10 μM) |

Reference: US20080009418A1, “Selective Inhibitors” (Alchemia LTD., priority 2004, published 2008)
